ChEMBL document CHEMBL5465560, “Selectivity Literature for EUbOPEN Chemogenomic Library” (2024)

Experiments:
[1] = molecular target: Hepatocyte growth factor-like protein (Homo sapiens) (UniProt P26927); details: at 10 µM
[2] = molecular target: T1, Serine/threonine-protein kinase Chk1 (Homo sapiens) (UniProt O14757); details: at 10 µM
T1 sequence (whole entry): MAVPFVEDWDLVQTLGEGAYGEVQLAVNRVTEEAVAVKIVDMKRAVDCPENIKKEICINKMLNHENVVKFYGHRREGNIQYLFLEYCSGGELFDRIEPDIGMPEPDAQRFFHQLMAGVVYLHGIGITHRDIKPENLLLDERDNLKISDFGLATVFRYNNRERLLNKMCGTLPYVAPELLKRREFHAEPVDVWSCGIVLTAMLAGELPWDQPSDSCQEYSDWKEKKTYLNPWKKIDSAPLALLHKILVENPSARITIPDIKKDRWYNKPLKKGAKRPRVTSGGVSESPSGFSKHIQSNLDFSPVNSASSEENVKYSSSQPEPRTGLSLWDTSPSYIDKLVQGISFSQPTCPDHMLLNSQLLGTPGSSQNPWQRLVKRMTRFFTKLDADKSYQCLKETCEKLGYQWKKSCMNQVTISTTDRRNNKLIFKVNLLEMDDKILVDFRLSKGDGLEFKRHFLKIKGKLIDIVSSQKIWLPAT

[3] = molecular target: Histone-lysine N-methyltransferase SETDB1 (Homo sapiens) (UniProt Q15047); experiment: Selectivity interaction (Methyltransferase screen (radiometric assays, panel of 8 PRMTs, 21 protein lysine methyltransferases, 3 DNA methyltransferases, and one RNA methyltransferase)) EUB0000272b SETDB1
[4] = molecular target: Casein kinase I isoform alpha (Homo sapiens, UniProt P48729); experiment: Selectivity interaction (KinomeScan (DiscoverX)) EUB0000229b CSNK1A1; details: at 10 µM
[5] = molecular target: Serine/threonine-protein kinase VRK2 (Homo sapiens) (UniProt Q86Y07); experiment: Selectivity interaction (KinomeScan (DiscoverX)) EUB0000092b VRK2; details: at 10 µM
[6] = molecular target: 5'-AMP-activated protein kinase catalytic subunit alpha-1 (Homo sapiens, UniProt Q13131); experiment: Selectivity interaction (Upstate Kinase Profiler service (Millipore)) EUB0000056c PRKAA1; details: at 1 µM
[7] = molecular target: T2, Mitogen-activated protein kinase kinase kinase 3 (Homo sapiens) (UniProt Q99759); experiment: Selectivity interaction (ActivX KiNativ screen (kinase selectivity in THP-1 cell lysates)) EUB0000639a MAP3K3; type: subcellular; details: lysate, at 1 µM
T2 sequence (whole entry): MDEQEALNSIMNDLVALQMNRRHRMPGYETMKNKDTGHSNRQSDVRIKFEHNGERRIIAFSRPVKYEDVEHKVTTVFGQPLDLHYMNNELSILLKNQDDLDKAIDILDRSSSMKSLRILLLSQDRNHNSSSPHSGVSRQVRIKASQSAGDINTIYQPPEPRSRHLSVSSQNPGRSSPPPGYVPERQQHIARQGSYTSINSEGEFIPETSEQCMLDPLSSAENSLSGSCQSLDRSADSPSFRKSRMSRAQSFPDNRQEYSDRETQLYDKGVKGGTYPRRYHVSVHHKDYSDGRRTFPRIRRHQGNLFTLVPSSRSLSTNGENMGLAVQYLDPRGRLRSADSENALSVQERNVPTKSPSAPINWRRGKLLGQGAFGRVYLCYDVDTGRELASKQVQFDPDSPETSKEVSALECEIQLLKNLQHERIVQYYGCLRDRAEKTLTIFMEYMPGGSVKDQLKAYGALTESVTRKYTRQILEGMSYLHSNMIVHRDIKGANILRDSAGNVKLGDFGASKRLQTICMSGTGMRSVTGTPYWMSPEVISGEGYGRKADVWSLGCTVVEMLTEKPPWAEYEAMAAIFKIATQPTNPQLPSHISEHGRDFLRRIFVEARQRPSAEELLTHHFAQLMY

[8] = molecular target: T3, Serine/threonine-protein kinase LATS1 (Homo sapiens) (UniProt O95835); experiment: Selectivity interaction (ActivX KiNativ screen (kinase selectivity in THP-1 cell lysates)) EUB0000639a LATS1; type: subcellular; details: lysate, at 0.04 µM
T3 sequence (whole entry): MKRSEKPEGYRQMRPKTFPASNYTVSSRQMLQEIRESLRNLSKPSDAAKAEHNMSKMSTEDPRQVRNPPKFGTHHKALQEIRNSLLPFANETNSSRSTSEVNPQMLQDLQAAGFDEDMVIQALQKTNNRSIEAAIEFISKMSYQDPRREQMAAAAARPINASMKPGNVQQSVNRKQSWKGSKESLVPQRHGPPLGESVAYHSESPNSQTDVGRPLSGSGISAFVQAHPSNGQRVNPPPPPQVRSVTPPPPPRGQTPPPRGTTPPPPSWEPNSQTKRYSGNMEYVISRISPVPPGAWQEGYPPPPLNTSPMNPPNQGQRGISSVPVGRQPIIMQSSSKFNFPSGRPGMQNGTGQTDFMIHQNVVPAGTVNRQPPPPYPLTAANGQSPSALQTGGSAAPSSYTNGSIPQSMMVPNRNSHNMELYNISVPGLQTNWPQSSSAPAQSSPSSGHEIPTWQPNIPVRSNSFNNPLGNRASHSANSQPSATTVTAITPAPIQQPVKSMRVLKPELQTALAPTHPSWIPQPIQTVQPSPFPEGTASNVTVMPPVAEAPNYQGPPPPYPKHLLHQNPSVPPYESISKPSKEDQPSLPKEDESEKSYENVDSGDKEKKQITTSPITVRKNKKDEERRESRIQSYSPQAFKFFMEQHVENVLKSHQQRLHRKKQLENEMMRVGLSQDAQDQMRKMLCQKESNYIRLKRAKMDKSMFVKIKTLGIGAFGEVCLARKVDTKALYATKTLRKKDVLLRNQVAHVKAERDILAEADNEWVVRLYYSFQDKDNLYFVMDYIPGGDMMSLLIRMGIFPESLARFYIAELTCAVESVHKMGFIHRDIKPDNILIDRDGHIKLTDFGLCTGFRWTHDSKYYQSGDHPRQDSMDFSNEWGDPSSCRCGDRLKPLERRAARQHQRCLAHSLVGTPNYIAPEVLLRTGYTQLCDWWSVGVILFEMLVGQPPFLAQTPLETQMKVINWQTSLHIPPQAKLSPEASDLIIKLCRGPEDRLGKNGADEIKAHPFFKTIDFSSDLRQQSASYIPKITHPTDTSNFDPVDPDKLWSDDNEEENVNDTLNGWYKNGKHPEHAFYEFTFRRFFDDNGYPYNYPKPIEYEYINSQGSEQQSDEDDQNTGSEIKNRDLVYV

[9] = molecular target: Phosphatidylinositol 4,5-bisphosphate 3-kinase catalytic subunit gamma isoform (Homo sapiens) (UniProt P48736); experiment: Selectivity interaction (KinomeScan (DiscoverX)) EUB0000607a PIK3CG; details: at 10 µM
[10] = molecular target: Mitogen-activated protein kinase 9 (Homo sapiens, UniProt P45984); experiment: Selectivity interaction (KinomeScan (DiscoverX)) EUB0000618a MAPK9; details: at 10 µM
[11] = molecular target: Tyrosine-protein kinase ABL2 (Homo sapiens, UniProt P42684); experiment: Selectivity interaction (Ambit KINOMEscan and KiNATiv profiling in Jurkat cells) EUB0000090b ABL2; type: cell-based; details: at 1 µM
Tyrosine-protein kinase ABL2, sequence (P42684 whole entry): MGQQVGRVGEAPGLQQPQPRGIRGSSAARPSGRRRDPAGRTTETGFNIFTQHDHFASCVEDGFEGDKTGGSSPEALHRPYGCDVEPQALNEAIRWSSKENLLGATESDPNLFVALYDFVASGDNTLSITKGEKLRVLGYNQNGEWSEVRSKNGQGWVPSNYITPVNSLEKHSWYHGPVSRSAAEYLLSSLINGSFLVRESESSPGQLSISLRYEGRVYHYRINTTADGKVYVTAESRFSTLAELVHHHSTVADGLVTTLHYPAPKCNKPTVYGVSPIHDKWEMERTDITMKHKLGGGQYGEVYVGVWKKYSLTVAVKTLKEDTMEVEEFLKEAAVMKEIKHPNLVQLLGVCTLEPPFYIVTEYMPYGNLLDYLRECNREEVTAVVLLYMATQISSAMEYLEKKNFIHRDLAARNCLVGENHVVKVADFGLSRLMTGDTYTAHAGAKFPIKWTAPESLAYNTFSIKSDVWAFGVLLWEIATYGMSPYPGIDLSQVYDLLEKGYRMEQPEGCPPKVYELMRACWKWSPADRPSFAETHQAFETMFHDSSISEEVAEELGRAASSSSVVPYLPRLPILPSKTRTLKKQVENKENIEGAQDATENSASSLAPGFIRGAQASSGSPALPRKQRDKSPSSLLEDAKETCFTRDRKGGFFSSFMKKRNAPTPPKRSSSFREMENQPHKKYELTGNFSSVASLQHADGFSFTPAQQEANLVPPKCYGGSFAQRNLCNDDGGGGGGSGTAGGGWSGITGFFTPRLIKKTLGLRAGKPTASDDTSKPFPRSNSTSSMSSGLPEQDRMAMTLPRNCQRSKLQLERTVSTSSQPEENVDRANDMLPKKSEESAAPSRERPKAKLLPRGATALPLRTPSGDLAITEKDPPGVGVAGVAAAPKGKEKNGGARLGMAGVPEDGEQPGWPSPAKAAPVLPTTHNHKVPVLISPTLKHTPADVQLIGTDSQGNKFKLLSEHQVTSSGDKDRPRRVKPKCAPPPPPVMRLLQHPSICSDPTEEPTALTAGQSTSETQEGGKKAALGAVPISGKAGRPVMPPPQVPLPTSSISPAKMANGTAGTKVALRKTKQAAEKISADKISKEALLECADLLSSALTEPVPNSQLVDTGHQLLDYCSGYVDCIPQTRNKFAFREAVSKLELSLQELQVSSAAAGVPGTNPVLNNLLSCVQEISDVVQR

Phosphatidylinositol 4,5-bisphosphate 3-kinase catalytic subunit gamma isoform (Homo sapiens), sequence (P48736 whole entry, looked up, canonical isoform): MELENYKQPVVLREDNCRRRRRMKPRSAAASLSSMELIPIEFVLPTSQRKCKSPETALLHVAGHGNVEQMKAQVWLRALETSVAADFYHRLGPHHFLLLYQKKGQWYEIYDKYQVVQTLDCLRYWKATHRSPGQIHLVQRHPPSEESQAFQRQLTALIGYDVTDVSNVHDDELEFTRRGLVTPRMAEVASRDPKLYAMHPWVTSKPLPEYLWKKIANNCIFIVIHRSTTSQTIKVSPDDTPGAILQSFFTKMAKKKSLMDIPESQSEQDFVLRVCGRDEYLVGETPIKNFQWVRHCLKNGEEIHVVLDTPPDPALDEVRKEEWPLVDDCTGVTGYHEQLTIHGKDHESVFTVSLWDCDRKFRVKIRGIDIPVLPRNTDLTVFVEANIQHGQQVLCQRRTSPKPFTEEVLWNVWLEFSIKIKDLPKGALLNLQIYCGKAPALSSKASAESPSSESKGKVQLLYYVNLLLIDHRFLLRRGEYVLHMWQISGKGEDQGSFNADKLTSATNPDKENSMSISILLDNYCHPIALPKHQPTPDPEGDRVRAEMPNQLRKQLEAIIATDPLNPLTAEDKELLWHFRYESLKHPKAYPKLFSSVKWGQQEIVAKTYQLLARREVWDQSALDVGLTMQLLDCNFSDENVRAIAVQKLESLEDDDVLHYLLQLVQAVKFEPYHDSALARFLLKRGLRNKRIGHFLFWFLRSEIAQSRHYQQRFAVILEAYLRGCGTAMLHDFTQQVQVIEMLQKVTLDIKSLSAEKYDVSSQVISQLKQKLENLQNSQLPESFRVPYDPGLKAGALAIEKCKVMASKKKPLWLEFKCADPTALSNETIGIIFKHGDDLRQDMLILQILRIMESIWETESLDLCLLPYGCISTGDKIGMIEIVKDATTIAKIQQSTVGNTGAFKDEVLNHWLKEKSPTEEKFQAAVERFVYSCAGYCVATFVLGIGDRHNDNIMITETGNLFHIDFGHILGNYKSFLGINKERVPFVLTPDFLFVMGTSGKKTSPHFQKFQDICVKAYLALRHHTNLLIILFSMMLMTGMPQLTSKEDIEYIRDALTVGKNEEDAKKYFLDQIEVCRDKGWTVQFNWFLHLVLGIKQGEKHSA
5'-AMP-activated protein kinase catalytic subunit alpha-1, sequence (Q13131 whole entry, looked up): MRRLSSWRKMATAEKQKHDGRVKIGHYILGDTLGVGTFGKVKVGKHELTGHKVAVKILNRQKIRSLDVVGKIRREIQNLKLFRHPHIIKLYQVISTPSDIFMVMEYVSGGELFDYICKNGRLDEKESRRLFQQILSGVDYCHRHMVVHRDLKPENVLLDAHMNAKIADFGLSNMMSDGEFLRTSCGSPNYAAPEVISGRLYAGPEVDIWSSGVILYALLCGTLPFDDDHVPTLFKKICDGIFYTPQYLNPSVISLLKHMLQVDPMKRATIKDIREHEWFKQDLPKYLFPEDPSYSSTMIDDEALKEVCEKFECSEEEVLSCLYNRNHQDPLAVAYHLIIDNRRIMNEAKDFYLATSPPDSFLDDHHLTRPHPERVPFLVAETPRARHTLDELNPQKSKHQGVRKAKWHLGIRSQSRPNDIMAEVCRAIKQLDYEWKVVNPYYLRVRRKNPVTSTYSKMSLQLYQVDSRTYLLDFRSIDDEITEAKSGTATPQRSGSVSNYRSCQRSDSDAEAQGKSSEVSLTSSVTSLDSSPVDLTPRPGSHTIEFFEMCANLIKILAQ
Mitogen-activated protein kinase 9, sequence (P45984 whole entry, looked up): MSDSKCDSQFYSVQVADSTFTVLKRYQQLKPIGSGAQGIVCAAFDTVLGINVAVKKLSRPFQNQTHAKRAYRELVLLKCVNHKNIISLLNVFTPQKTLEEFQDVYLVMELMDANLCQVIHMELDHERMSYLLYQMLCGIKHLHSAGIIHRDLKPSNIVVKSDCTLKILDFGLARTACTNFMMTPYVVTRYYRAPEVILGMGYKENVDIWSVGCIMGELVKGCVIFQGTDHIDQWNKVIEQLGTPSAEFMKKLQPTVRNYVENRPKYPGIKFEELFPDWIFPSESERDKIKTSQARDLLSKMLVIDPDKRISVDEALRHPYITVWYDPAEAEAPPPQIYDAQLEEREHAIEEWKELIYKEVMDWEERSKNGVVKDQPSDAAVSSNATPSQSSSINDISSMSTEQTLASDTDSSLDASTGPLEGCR
Casein kinase I isoform alpha, sequence (P48729 2-337 limits assumed): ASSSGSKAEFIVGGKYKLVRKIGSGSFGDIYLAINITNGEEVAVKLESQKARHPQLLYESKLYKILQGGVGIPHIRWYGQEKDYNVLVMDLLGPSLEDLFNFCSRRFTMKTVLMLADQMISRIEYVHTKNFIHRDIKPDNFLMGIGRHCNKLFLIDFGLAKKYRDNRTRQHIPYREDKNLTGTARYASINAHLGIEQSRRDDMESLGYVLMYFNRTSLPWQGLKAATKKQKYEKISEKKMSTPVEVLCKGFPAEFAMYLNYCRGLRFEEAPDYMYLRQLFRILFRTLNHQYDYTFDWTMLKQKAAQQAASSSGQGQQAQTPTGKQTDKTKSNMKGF
Serine/threonine-protein kinase VRK2 (Homo sapiens), sequence (Q86Y07 whole entry): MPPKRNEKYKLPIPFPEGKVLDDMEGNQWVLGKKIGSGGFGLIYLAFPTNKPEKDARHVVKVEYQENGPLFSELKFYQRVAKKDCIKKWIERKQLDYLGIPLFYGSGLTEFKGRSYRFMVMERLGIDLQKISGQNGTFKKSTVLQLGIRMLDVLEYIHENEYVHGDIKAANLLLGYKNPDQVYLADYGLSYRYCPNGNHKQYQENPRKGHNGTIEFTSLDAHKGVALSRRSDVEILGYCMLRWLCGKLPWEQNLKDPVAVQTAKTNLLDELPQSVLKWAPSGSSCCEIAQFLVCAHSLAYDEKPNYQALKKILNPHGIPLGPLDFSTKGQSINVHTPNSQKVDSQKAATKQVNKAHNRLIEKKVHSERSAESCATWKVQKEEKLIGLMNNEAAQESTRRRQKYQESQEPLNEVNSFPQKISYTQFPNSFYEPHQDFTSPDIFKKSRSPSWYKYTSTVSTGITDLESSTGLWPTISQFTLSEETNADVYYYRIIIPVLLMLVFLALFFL

Molecule CCN(CC)CCCCNc1ncc2cc(-c3cc(OC)cc(OC)c3)c(NC(=O)NC(C)(C)C)nc2n1 has a % of control [1] of 100% and a % of control [2] of 100%.
Cc1cc(C)cc([C@H]2c3cc(C)ccc3NC(=O)CN2C(=O)c2ccc(Br)s2)c1 showed a % of activity ([3]; at 1 µM) of 103% and a % of activity ([3]; at 10 µM) of 104%.
Work on COc1cc(N(C)c2ccnc3ccc(C(F)(F)F)cc23)cc(OC)c1OC yielded a % binding [4] of 90%.
For CCC(=O)N1CCN(c2ccc(-n3c(=O)ccc4cnc5ccc(-c6cnc7ccccc7c6)cc5c43)cc2C(F)(F)F)CC1, the % of control [5] was 100%.
Work on Cc1ccc(-c2ccc3c(ccc4sc5c(c43)NC[C@@H](C)NC5=O)n2)cn1 yielded a % of inhibition [6] of 77%.
In the case of CC[C@@H]1[C@H](F)C(=O)N[C@@H]1COc1nccc2cc(C(N)=O)c(OC)cc12 [ZIMLOVISERTIB], the % of inhibition [7] is reported as -7.9% and the % of inhibition [8] is reported as -18.5%.
CNC(=O)Nc1ccc(-c2nc(N3CC4CCC(C3)O4)c3cnn(C4CCC5(CC4)OCCO5)c3n2)cc1 showed a % of control [9] of 72%.
O[C@H]1CC[C@H](Nc2ncc3nc(Nc4c(F)cc(F)cc4F)n([C@H]4CCOC4)c3n2)CC1 gave a % of control [10] of 0%.
With CN(C)C/C=C/C(=O)Nc1ccc(C(=O)N2CCCC(Nc3ncc(Cl)c(-c4c[nH]c5ccccc45)n3)C2)cc1 (configuration not stated) the % of control [11] was 92%.
